In patent publication US9833497B2, “Human originated EGF domain proteins and use of the same” (CHENGDU SOURCEBIO LIMITED-LIABILITY COMPANY, priority 2013, dated 2017):

Key:
Assay type in all cases: cell-based
[1] = tested on: E. coli BL21; assay: MIC against Gram-negative bacteria: E. coli BL21; conditions: 5×10^5 CFU/mL
Procedure, shortened: (§1)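 Antibacterial activity of purified human EGF domain proteins: two-fold concentration series, triplicate wells, LB broth, 5×10^5 CFU/mL bacteria, 37° C shaking incubation. The lowest concentration without growth defines the MIC.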

[2] = tested on: E. coli DH5α; assay: Antibacterial activity: MIC and growth curve against E. coli DH5α in 96-well plate; conditions: minimal inhibitory concentration against E. coli DH5α; 96-well plate, 5×10^5 CFU/mL, 37° C., judged after 8 h
Procedure, shortened: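 Log-phase bacteria (OD600 ~0.5) resuspended in LB at 5×10^5 CFU/mL, exposed to recombinant protein at 50, 25, 12.5 μg/mL final in triplicate, 37 °C shaking at 175 rpm. OD600 read every 30 min; MIC is lowest concentration showing no growth.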

[3] = tested on: Proteus vulgaris; assay: MIC against Gram-negative bacteria: Proteus vulgaris; conditions: 5×10^5 CFU/mL
Procedure, shortened: as §1

[4] = tested on: Enterobacter cloacae; assay: MIC against Gram-negative bacteria: Enterobacter cloacae; conditions: 5×10^5 CFU/mL
Procedure, shortened: as §1

[5] = tested on: Aeromonas hydrophila; assay: MIC against Gram-negative bacteria: Aeromonas hydrophila; conditions: 5×10^5 CFU/mL
Procedure, shortened: as §1

[6] = tested on: Proteus mirabilis; assay: MIC against Gram-negative bacteria: Proteus mirabilis; conditions: 5×10^5 CFU/mL
Procedure, shortened: as §1

[7] = tested on: Moraxella catarrhalis; assay: MIC against Gram-negative bacteria: Moraxella catarrhalis; conditions: 5×10^5 CFU/mL
Procedure, shortened: as §1

[8] = tested on: Citrobacter diversus; assay: MIC against Gram-negative bacteria: Citrobacter diversus; conditions: 5×10^5 CFU/mL
Procedure, shortened: as §1

[9] = tested on: Pseudomonas aeruginosa; assay: MIC against Gram-negative bacteria: Pseudomonas aeruginosa; conditions: 5×10^5 CFU/mL
Procedure, shortened: as §1

[10] = tested on: Klebsiella pneumonia; assay: MIC against Gram-negative bacteria: Klebsiella pneumonia; conditions: 5×10^5 CFU/mL
Procedure, shortened: as §1

[11] = tested on: Serratia marcescens; assay: MIC against Gram-negative bacteria: Serratia marcescens; conditions: 5×10^5 CFU/mL
Procedure, shortened: as §1

[12] = E. coli BL21, 96-well plate, 37° C., 10 h
[13] = Proteus vulgaris, 96-well plate, 37° C., 10 h
[14] = Enterobacter cloacae, 96-well plate, 37° C., 10 h
[15] = Aeromonas hydrophila, 96-well plate, 37° C., 10 h
[16] = Proteus mirabilis, 96-well plate, 37° C., 10 h
[17] = Moraxella catarrhalis, 96-well plate, 37° C., 10 h
[18] = Citrobacter diversus, 96-well plate, 37° C., 10 h
[19] = Pseudomonas aeruginosa, 96-well plate, 37° C., 10 h
[20] = Klebsiella pneumonia, 96-well plate, 37° C., 10 h
[21] = Serratia marcescens, 96-well plate, 37° C., 10 h
[22] = E. coli BL21, 10 h cultivation at 37° C.
[23] = P. vulgaris, 10 h cultivation at 37° C.
[24] = E. cloacae, 10 h cultivation at 37° C.
[25] = A. hydrophila, 10 h cultivation at 37° C.
[26] = P. mirabilis, 10 h cultivation at 37° C.
[27] = M. catarrhalis, 10 h cultivation at 37° C.
[28] = C. diversus, 10 h cultivation at 37° C.
[29] = P. aeruginosa, 10 h cultivation at 37° C.
[30] = K. pneumonia, 10 h cultivation at 37° C.
[31] = S. marcescens, 10 h cultivation at 37° C.

PRT133 (CRGHCSSYGKLCRNGGKCRERPIGFFCDCTFSAYTGPFCS; listed as Homo sapiens)
MIC (μg/mL) E. coli BL21 [1, 12]: 12.5 µg/mL
MIC [2]: 50 µg/mL
MIC (μg/mL) P. vulgaris [3, 13]: 50 µg/mL
MIC (μg/mL) E. cloacae [4, 14]: 12.5 µg/mL
MIC (μg/mL) A. hydrophila [5, 15]: 25 µg/mL
MIC (μg/mL) P. mirabilis [6, 16]: 12.5 µg/mL
MIC (μg/mL) M. catarrhalis [7, 17]: 25 µg/mL
MIC (μg/mL) C. diversus [8, 18]: 50 µg/mL
MIC (μg/mL) P. aeruginosa [9, 19]: 50 µg/mL
MIC (μg/mL) K. pneumonia [10, 20]: 25 µg/mL
MIC (μg/mL) S. marcescens [11, 21]: 12.5 µg/mL

PRT1202 (GYDFCSERHNCMENSICRNLNDRAVCSCRDGFRALREDNAYCE; listed as Homo sapiens)
MIC against E. coli BL21 [1, 12]: 12.5 µg/mL
MIC [2]: 50 µg/mL
MIC against P. vulgaris [3, 13]: 25 µg/mL
MIC against E. cloacae [4, 14]: 12.5 µg/mL
MIC against A. hydrophila [5, 15]: 50 µg/mL
MIC against P. mirabilis [6, 16]: 12.5 µg/mL
MIC against M. catarrhalis [7, 17]: 50 µg/mL
MIC against C. diversus [8, 18]: 12.5 µg/mL
MIC against P. aeruginosa [9, 19]: 25 µg/mL
MIC against K. pneumonia [10, 20]: 50 µg/mL
MIC against S. marcescens [11, 21]: 50 µg/mL

PRT1351 (TAVCQSPCLNGGKCVRPNRCHCLSSWTGHNCS; listed as Homo sapiens)
MIC against E. coli BL21 [1, 22]: 25 µg/mL
MIC [2]: 25 µg/mL
MIC against P. vulgaris ([3]; Proteus vulgaris, 10 h cultivation at 37° C.): 25 µg/mL
MIC against E. cloacae ([4]; Enterobacter cloacae, 10 h cultivation at 37° C.): 12.5 µg/mL
MIC against A. hydrophila ([5]; Aeromonas hydrophila, 10 h cultivation at 37° C.): 12.5 µg/mL
MIC against P. mirabilis ([6]; Proteus mirabilis, 10 h cultivation at 37° C.): 12.5 µg/mL
MIC against M. catarrhalis ([7]; Moraxella catarrhalis, 10 h cultivation at 37° C.): 25 µg/mL
MIC against C. diversus ([8]; Citrobacter diversus, 10 h cultivation at 37° C.): 12.5 µg/mL
MIC against P. aeruginosa ([9]; Pseudomonas aeruginosa, 10 h cultivation at 37° C.): 50 µg/mL
MIC against K. pneumonia ([10]; Klebsiella pneumonia, 10 h cultivation at 37° C.): 25 µg/mL
MIC against S. marcescens ([11]; Serratia marcescens, 10 h cultivation at 37° C.): 12.5 µg/mL

PRT530 (CSCDPEHADGCEQGSGRCHCKPNFHGDNCEKCAIGYYNFPFCLR; listed as Homo sapiens)
MIC against E. coli BL21 ([1]; 96-well plate, 37° C., 10 h): 12.5 µg/mL
MIC [2]: 50 µg/mL
MIC against P. vulgaris ([3]; 96-well plate, 37° C., 10 h): 12.5 µg/mL
MIC against E. cloacae ([4]; 96-well plate, 37° C., 10 h): 25 µg/mL
MIC against A. hydrophila ([5]; 96-well plate, 37° C., 10 h): 12.5 µg/mL
MIC against P. mirabilis ([6]; 96-well plate, 37° C., 10 h): 25 µg/mL
MIC against M. catarrhalis ([7]; 96-well plate, 37° C., 10 h): 50 µg/mL
MIC against C. diversus ([8]; 96-well plate, 37° C., 10 h): 25 µg/mL
MIC against P. aeruginosa ([9]; 96-well plate, 37° C., 10 h): 25 µg/mL
MIC against K. pneumonia ([10]; 96-well plate, 37° C., 10 h): 50 µg/mL
MIC against S. marcescens ([11]; 96-well plate, 37° C., 10 h): 25 µg/mL

PRT876 (TAKPCLSNPCKNNGMCRDGWNRYVCDCSGTGYLGRSCE; listed as Homo sapiens)
MIC (μg/mL) E. coli BL21 [1, 22]: 12.5 µg/mL
MIC [2]: 12.5 µg/mL
MIC (μg/mL) P. vulgaris [3, 23]: 25 µg/mL
MIC (μg/mL) E. cloacae [4, 24]: 25 µg/mL
MIC (μg/mL) A. hydrophila [5, 25]: 12.5 µg/mL
MIC (μg/mL) P. mirabilis [6, 26]: 25 µg/mL
MIC (μg/mL) M. catarrhalis [7, 27]: 12.5 µg/mL
MIC (μg/mL) C. diversus [8, 28]: 25 µg/mL
MIC (μg/mL) P. aeruginosa [9, 29]: 12.5 µg/mL
MIC (μg/mL) K. pneumonia [10, 30]: 12.5 µg/mL
MIC (μg/mL) S. marcescens [11, 31]: 25 µg/mL

PRT169 (CIRYPGCLHGTCQQPWQCNCQEGWGGLFC; listed as Homo sapiens)
MIC (μg/mL) E. coli BL21 [1, 22]: 12.5 µg/mL
MIC [2]: 50 µg/mL
MIC (μg/mL) P. vulgaris [3, 23]: 25 µg/mL
MIC (μg/mL) E. cloacae [4, 24]: 50 µg/mL
MIC (μg/mL) A. hydrophila [5, 25]: 25 µg/mL
MIC (μg/mL) P. mirabilis [6, 26]: 50 µg/mL
MIC (μg/mL) M. catarrhalis [7, 27]: 25 µg/mL
MIC (μg/mL) C. diversus [8, 28]: 12.5 µg/mL
MIC (μg/mL) P. aeruginosa [9, 29]: 50 µg/mL
MIC (μg/mL) K. pneumonia [10, 30]: 100 µg/mL
MIC (μg/mL) S. marcescens [11, 31]: 12.5 µg/mL

PRT486 (EANPCKFQACNEFSECLVNPWSGEAKCRCFPGYLSVEERPCQ; listed as Homo sapiens)
MIC against E. coli BL21 ([1]; 96-well plate, 37° C., 10 h): 50 µg/mL
MIC [2]: 12.5 µg/mL
MIC against P. vulgaris ([3]; 96-well plate, 37° C., 10 h): 50 µg/mL
MIC against E. cloacae ([4]; 96-well plate, 37° C., 10 h): 12.5 µg/mL
MIC against A. hydrophila ([5]; 96-well plate, 37° C., 10 h): 50 µg/mL
MIC against P. mirabilis ([6]; 96-well plate, 37° C., 10 h): 12.5 µg/mL
MIC against M. catarrhalis ([7]; 96-well plate, 37° C., 10 h): 50 µg/mL
MIC against C. diversus ([8]; 96-well plate, 37° C., 10 h): 12.5 µg/mL
MIC against P. aeruginosa ([9]; 96-well plate, 37° C., 10 h): 12.5 µg/mL
MIC against K. pneumonia ([10]; 96-well plate, 37° C., 10 h): 50 µg/mL
MIC against S. marcescens ([11]; 96-well plate, 37° C., 10 h): 25 µg/mL
